Several values for one entry are separate records, joined by “and”; a condition that tells them apart may be missing. Equal entries are not always repeated. Where two headings read alike, the source gives them in different places.
Key:
[1] = test system: B16; experiment: MTT cell proliferation assay, B16; format: cell-based, murine; details: MTT, 72 h, mean ± SD, triplicate, read-out: IC50 ± SD B16
[2] = test system: MCF7; experiment: MTT cell proliferation assay, MCF7; format: cell-based, human; details: MTT, 72 h, mean ± SD, triplicate, read-out: IC50 ± SD MCF7
[3] = target: T1, HDAC6 (Homo sapiens, UniProt Q9UBN7); experiment: HDAC enzyme activity assay (fluorogenic, Boc-Lys(acetyl)-AMC), HDAC6; format: biochemical; details: for IC50: class IIb HDAC6, mean ± SD, triplicate
T1 construct: Full-length recombinant HDAC6 was purchased from BPS Bioscience; purchased BPS Bioscience
T1 sequence (Q9UBN7 1-1215): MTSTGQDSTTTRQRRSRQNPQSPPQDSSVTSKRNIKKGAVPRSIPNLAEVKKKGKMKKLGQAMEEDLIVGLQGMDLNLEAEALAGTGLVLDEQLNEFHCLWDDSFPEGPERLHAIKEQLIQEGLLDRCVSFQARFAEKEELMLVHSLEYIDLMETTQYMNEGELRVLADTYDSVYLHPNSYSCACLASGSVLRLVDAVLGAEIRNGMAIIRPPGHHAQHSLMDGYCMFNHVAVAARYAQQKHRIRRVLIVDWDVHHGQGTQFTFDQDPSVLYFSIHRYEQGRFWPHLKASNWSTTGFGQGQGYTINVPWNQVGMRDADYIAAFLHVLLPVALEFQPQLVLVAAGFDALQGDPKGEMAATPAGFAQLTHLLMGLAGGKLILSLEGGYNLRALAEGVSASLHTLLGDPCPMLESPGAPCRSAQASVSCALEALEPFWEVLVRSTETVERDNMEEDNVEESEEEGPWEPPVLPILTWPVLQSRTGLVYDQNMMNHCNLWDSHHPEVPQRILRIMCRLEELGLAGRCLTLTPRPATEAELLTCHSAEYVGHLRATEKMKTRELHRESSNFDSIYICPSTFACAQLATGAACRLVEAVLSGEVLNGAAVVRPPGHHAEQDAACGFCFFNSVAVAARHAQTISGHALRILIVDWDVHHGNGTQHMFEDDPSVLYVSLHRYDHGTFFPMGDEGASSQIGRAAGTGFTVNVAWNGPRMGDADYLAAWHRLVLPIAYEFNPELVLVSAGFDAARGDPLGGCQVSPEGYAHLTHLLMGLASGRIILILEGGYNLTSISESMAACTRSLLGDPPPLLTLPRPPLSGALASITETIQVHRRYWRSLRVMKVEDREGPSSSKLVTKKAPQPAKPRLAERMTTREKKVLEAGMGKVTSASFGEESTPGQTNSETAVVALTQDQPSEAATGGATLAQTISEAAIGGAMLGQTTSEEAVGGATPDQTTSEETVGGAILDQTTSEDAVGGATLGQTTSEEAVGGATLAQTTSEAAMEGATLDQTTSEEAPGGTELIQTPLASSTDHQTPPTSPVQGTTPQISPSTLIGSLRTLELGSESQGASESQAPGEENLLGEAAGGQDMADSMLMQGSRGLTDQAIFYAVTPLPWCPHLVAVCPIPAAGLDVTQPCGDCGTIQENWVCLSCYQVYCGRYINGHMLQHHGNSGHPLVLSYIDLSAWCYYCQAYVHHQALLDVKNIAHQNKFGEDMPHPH

[4] = test system: HEK 293; experiment: MTT cell proliferation assay, HEK 293; format: cell-based, human; details: MTT, 72 h, mean ± SD, triplicate, read-out: IC50 ± SD HEK 293
[5] = target: T2, HDAC4 (Homo sapiens, UniProt P56524); experiment: HDAC enzyme activity assay (fluorogenic, Boc-Lys(trifluoroacetyl)-AMC), HDAC4; format: biochemical; details: class IIa HDAC4; mean ± SD, triplicate
T2 construct: catalytic domain of HDAC4 (T648-T1057, full length: UniProt P56524); made in house; host or cells: E. coli BL21(DE3), pET14b vector

[6] = test system: HCT116; experiment: MTT cell proliferation assay, HCT116; format: cell-based, human; details: MTT, 72 h, mean ± SD, triplicate, read-out: IC50 ± SD HCT116
[7] = target: T3, HDAC8 (Homo sapiens, UniProt Q9BY41); experiment: HDAC enzyme activity assay (fluorogenic, Boc-Lys(trifluoroacetyl)-AMC), HDAC8; format: biochemical; details: class I HDAC8; mean ± SD, triplicate
T3 construct: codon-optimized full-length HDAC8; made in house; host or cells: E. coli BL21(DE3), pET14b vector
T3 sequence (Q9BY41 1-377): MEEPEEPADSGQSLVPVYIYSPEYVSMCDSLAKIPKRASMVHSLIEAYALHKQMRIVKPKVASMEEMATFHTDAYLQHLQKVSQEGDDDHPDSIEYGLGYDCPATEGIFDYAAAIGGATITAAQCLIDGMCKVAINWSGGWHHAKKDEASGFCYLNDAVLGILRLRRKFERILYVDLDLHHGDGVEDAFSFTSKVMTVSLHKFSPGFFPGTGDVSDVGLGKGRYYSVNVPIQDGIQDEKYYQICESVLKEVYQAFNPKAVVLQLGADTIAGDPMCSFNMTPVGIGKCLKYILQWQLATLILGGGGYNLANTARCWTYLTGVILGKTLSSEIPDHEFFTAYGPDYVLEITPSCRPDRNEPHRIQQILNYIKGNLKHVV

T2 sequence (P56524 648-1057): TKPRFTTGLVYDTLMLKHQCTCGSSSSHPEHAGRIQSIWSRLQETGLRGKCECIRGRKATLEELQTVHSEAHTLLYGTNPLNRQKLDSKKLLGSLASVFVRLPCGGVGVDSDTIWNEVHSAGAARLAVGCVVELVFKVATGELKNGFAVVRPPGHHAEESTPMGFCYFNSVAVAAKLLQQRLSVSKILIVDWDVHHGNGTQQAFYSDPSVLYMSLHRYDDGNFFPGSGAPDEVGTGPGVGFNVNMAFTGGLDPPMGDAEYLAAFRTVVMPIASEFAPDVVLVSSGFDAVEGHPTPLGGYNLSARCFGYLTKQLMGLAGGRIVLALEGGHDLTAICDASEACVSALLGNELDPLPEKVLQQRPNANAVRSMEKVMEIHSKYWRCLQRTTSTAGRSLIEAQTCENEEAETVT

| Compound | IC50 ([1]; Mus musculus, B16) | IC50 ([2]; Homo sapiens, MCF7, 72 h) | IC50 [3] | IC50 ([4]; Homo sapiens, HEK293) | IC50 [5] | IC50 ([6]; Homo sapiens, HCT-116) | IC50 [7] | selectivity against class IIa HDAC4 ([3]; HDAC6 versus HDAC4) | selectivity against class I HDAC8 ([3]; HDAC6 versus HDAC8) | IC50 [1] | IC50 [2] | IC50 [4] | IC50 [6] |
| --- | --- | --- | --- | --- | --- | --- | --- | --- | --- | --- | --- | --- | --- |
| O=C(NO)c1ccc(CSc2nc3ccccc3c(=O)n2-c2ccc(Cl)cc2)cc1 [Compound 5a, 4-(((3-(4-chlorophenyl)-4-oxo-3,4-dihydroquinazolin-2-yl)thio)methyl)-N-hydroxybenzamide] | 48.8 ± 9.68 µM | 26.5 ± 3.5 µM | 5.6 ± 0.6 µM | 30.9 µM | 4.5 ± 1.2 µM | 46.2 ± 20 µM | 24 µM |  |  |  |  |  |  |
| O=C(NO)c1ccc(CSc2nc3ccccc3c(=O)n2-c2ccccc2)cc1 [Compound 5b, N-hydroxy-4-(((4-oxo-3-phenyl-3,4-dihydroquinazolin-2-yl)thio)methyl)benzamide] | 28.9 ± 2.32 µM | 24.3 ± 5.97 µM | 0.15 ± 0.01 µM | 26.4 ± 5 µM | 2.3 ± 1.1 µM | 17.6 ± 1.77 µM | 1.4 ± 0.3 µM |  |  |  |  |  |  |
| O=C(NO)c1ccc(CSc2nc3ccccc3c(=O)n2-c2ccc(Br)cc2)cc1 [Compound 5e, 4-(((3-(4-bromophenyl)-4-oxo-3,4-dihydroquinazolin-2-yl)thio)methyl)-N-hydroxybenzamide] | 26.1 ± 1.27 µM | 44.6 ± 1.07 µM | 1.1 ± 0.1 µM | > 50 µM | 1.1 ± 0.4 µM | 46.4 ± 17.8 µM | 3 ± 0.5 µM |  |  |  |  |  |  |
| Cc1cccc(-n2c(SCc3ccc(C(=O)NO)cc3)nc3ccccc3c2=O)c1 [Compound 5g, N-hydroxy-4-(((4-oxo-3-(m-tolyl)-3,4-dihydroquinazolin-2-yl)thio)methyl)benzamide] | 23 ± 13.7 µM | 25.3 ± 3.21 µM | 0.26 ± 0.02 µM | > 50 µM | 0.87 ± 0.31 µM | 30.7 ± 15.8 µM | 0.79 ± 0.16 µM |  |  |  |  |  |  |
| O=C(NO)c1ccc(CSc2nc3ccccc3c(=O)n2-c2cccc(Cl)c2)cc1 [Compound 5h, 4-(((3-(3-chlorophenyl)-4-oxo-3,4-dihydroquinazolin-2-yl)thio)methyl)-N-hydroxybenzamide] | > 50 µM | > 50 µM | 0.17 ± 0.03 µM | > 50 µM | 1.4 ± 0.5 µM | > 50 µM | 1.1 ± 0.3 µM |  |  |  |  |  |  |
| O=C(NO)c1ccc(CSc2nc3ccccc3c(=O)n2-c2ccccc2F)cc1 [Compound 5i, 4-(((3-(2-fluorophenyl)-4-oxo-3,4-dihydroquinazolin-2-yl)thio)methyl)-N-hydroxybenzamide] | > 50 µM | > 50 µM | 0.36 ± 0.04 µM | > 50 µM | 8.4 ± 1.2 µM | 40.4 ± 16 µM | 2.9 ± 0.6 µM |  |  |  |  |  |  |
| O=C(NO)c1ccc(CSc2nc3cc(Cl)ccc3c(=O)n2-c2ccccc2)cc1 [Compound 5j, 4-(((7-chloro-4-oxo-3-phenyl-3,4-dihydroquinazolin-2-yl)thio)methyl)-N-hydroxybenzamide] | > 50 µM | > 50 µM | 0.65 ± 0.07 µM | > 50 µM | 4.3 ± 1.2 µM | > 50 µM | 4 ± 1 µM |  |  |  |  |  |  |
| O=C(NO)c1ccc(CSc2nc3cc(Cl)ccc3c(=O)n2-c2ccccc2F)cc1 [Compound 5m, 4-(((7-chloro-3-(2-fluorophenyl)-4-oxo-3,4-dihydroquinazolin-2-yl)thio)methyl)-N-hydroxybenzamide] | > 50 µM | > 50 µM | 0.21 ± 0.05 µM | > 50 µM | 0.56 ± 0.24 µM | > 50 µM | 3.3 ± 0.9 µM |  |  |  |  |  |  |
| Cc1ccc(-n2c(SCc3ccc(C(=O)NO)cc3)nc3cc(Cl)ccc3c2=O)cc1C [Compound 5o, 4-(((7-chloro-3-(3,4-dimethylphenyl)-4-oxo-3,4-dihydroquinazolin-2-yl)thio)methyl)-N-hydroxybenzamide] | > 50 µM | > 50 µM | 0.4 µM and 0.39 µM | > 50 µM | 7.1 ± 1.1 µM | > 50 µM | 14 µM | 18 fold | 36 fold |  |  |  |  |
| Cc1cccc2nc(SCc3ccc(C(=O)NO)cc3)n(-c3ccccc3)c(=O)c12 [Compound 5p, N-hydroxy-4-(((5-methyl-4-oxo-3-phenyl-3,4-dihydroquinazolin-2-yl)thio)methyl)benzamide] | > 50 µM | > 50 µM | 0.22 ± 0.05 µM | > 50 µM | 0.4 ± 0.14 µM | > 50 µM | 2.7 ± 0.6 µM |  |  |  |  |  |  |
| Cc1cccc2nc(SCc3ccc(C(=O)NO)cc3)n(-c3ccc(Cl)cc3)c(=O)c12 [Compound 5s, 4-(((3-(4-chlorophenyl)-5-methyl-4-oxo-3,4-dihydroquinazolin-2-yl)thio)methyl)-N-hydroxybenzamide] | > 50 µM | > 50 µM | 0.86 ± 0.06 µM | > 50 µM | 0.91 ± 0.33 µM | > 50 µM | 5.9 ± 0.8 µM |  |  |  |  |  |  |
| C#Cc1cccc(Nc2ncnc3cc(OCCOC)c(OCCOC)cc23)c1 [Erlotinib, reference compound] | > 50 µM | > 50 µM |  | > 50 µM |  | > 50 µM |  |  |  |  |  |  |  |
| CC(/C=C/C(=O)NO)=C\[C@@H](C)C(=O)c1ccc(N(C)C)cc1 [Trichostatin A, reference compound] |  |  |  |  |  |  |  |  |  | 28.9 ± 13 µM | 42.5 ± 11.3 µM | 15.3 ± 1.45 µM | 18.3 ± 5.63 µM |
| CN1CCc2c(c3ccccc3n2Cc2ccc(C(=O)NO)cc2)C1 [Tubastatin, reference compound] | 1.99 ± 0.25 µM | 12.7 ± 4.68 µM |  | 1.26 ± 0.29 µM |  | 1.34 ± 0.04 µM |  |  |  |  |  |  |  |

— PMC10341573, “Design, Synthesis, and Biological Evaluation of Novel Quinazolin-4(3H)-One-Based Histone Deacetylase 6 (HDAC6) Inhibitors for Anticancer Activity” (International Journal of Molecular Sciences, 2023)
